Test results from patent US6407073B1, “Use of coumarin derivatives for the treatment of digestive tract disorders” (Bio-Monde Preparations Limited, priority 1997, dated 2002).
Marks after values point to notes of the source that are not given here.

Tests used:
[1] = system: mice with AAP-induced hepatotoxicity; assay: Plasma aminotransferase levels in mice with AAP-induced hepatotoxicity; type: in vivo, CBA/H Zgr inbred mice
Description: Plasma aspartate aminotransferase (AST) and alanine aminotransferase (ALT) were measured 24 hours after the administration of acetaminophen, because it has been observed that the levels of AST and ALT are at their peak values at this time. Mice were given 250 units of […] intraoeritoneally 15 minutes before bleeding. Blood was obtained by puncture of medial orbital angle using glass capillary tubes. Plasma was stored at −20° C. until aminotransferase determination, which was carried out using standard laboratory techniques (see Expert Panel on Enzymes, Committee on Standards, Clin. Chem. Biochem. 1977; 15: 39-51 and Clin. Chem. Acta. 1980; 105: 147F-54F). Differences in survival between groups of mice were compared by χ^2-test. Plasma AST and ALT concentrations are expressed as means±SEM and differences between groups were compared by Student's t-test. The effect of a Compound of the invention (Hymecromone) was investigated on plasma aminotransferase levels in mice with AAP-induced hepatotoxicity. Hymecromone (250 mg/kg) or a control of saline was given to mice 30 minutes before administration of acetaminophen (220 mg/kg). Plasma AST and ALT were measured 24 hours after acetaminophen administration. […] As shown, in comparison with normal mice, the administration of acetaminophen increased AST and ALT by approximately 19 and 100 times, respectively.

[2] = system: mice with AAP-induced hepatotoxicity; assay: Survival of mice with acetaminophen (AAP)-induced hepatotoxicity; type: in vivo, CBA/H Zgr inbred mice; settings: for No of dead mice/Total No of mice / Mortality (%): 48 hours; for mortality in comparison with control mice given saline: 250 mg/kg
From the text: The hepatoprotective effect of a composition in accordance with the invention was investigated in mice with acetaminophen (paracetamol) induced hepatotoxicity.
CBA/H Zgr inbred mice were raised in an animal colony unit. Mice of both sexes aged 3 to 4 month were used in the experiments. Mice were maintained under standard laboratory conditions, fed with commercially available murine food pellets and allowed water ad libitum.
The procedure of Guarner was followed (see Hepatology 1988; 3:248-53). To induce hepatic drug-metabolising enzymes, mice were given phenobarbitone-sodium in drinking water for 7 days (0.3 g/L). Thereafter, mice were fasted overnight. […]
The above ingredients were dissolved in phosphate buffered saline (PBS) to which several drops of Tween 20™ (polyoxyethylene 20 sorbitan monolaurate) were added (50 μl/ml). The resulting white milk suspension was administered to mice intraperitoneally.
At the same time, control animals were given 0.5 ml of pyrogen-free saline to which several drops of Tween 20™ (50 μl/ml) were added.
Acetaminophen, dissolved in heated PBS, was given intragastrically, by stomach tube, in a volume of 0.5 ml. Animals were allowed food 4 hours later. Mortality of mice was followed for 48 hours, as previous results have shown that control mice (given saline rather than the composition before acetaminophen) either die within this period or fully recover and survive indefinitely.
Differences in survival between groups of mice were compared by χ^2-test. Plasma AST and ALT concentrations are expressed as means±SEM and differences between groups were compared by Student's t-test.

[3] = Hymecromone 250 mg/kg, AAP 220 mg/kg, P<0.005
[4] = plasma, Hymecromone 250 mg/kg 30 minutes before AAP 220 mg/kg, 24 hours after AAP, mean, n = 16, P < 0.005 vs saline
[5] = Table 1, Hymecromone 50 mg/kg i.p. 30 minutes before AAP 300 mg/kg
[6] = Table 1, Hymecromone 250 mg/kg i.p. 30 minutes before AAP 300 mg/kg, P < 0.01 vs saline
[7] = Table 2, Hymecromone 50 mg/kg i.p. 30 minutes before AAP 250 mg/kg
[8] = Table 2, Hymecromone 250 mg/kg i.p. 30 minutes before AAP 250 mg/kg, P < 0.001 vs saline
[9] = Table 3, Hymecromone 250 mg/kg i.p. 30 minutes before AAP 250 mg/kg, P < 0.001 vs saline

Cc1cc(=O)oc2cc(O)ccc12 [Hymecromone, 7-hydroxy-4-methylcoumarin]
reduction of the increase of ALT in comparison with control mice pretreated with saline [1, 3]: three times
reduction of the increase of AST in comparison with control mice pretreated with saline [1, 3]: five times
ALT [1, 4]: 776 U/L
AST [1, 4]: 267 U/L
No of dead mice/Total No of mice ([2]; Table 1, Hymecromone 10 mg/kg i.p. 30 minutes before AAP 300 mg/kg intragastrically): 12/12
Mortality (%) ([2]; Table 1, Hymecromone 10 mg/kg i.p. 30 minutes before AAP 300 mg/kg): 100%
Mortality (%) [2, 5]: 92%
No of dead mice/Total No of mice [2, 5]: 11/12
Mortality (%) [2, 6]: 29%
No of dead mice/Total No of mice [2, 6]: 2/7
mortality in comparison with control mice given saline ([2]; Table 1 experiment, P<0.01): significantly reduced the mortality
Mortality (%) [2, 7]: (93) %
No of dead mice/Total No of mice [2, 7]: 9/13
Mortality (%) [2, 8]: (0)^c %
No of dead mice/Total No of mice [2, 8]: 0/13
Mortality (%) [2, 9]: (0)^c %
No of dead mice/Total No of mice [2, 9]: 0/15
mortality in comparison with control mice given saline ([2]; two further experiments (Tables 2 and 3), P<0.001): statistically significantly reduced the mortality
